Measurements from patent US20040142851A1, “Hydrazinopeptoids and their uses for treating cancers” (priority 2001, published 2004).
Values belong to the molecule of their own block, whether it stands above or below them. Square brackets hold non-standard residues; d marks the D form. Peptide text beside a SMILES is read from it. * marks the point of attachment. Nle = CCCC[C@H](N)C(=O)O; Cbz = O=C(OCc1ccccc1)*

Legend:
XL2 cells [1] = assay: FACS analysis, % of cells blocked in G2/M in XL2 cell cultures; assay type: cell-based, Xenopus; conditions: for concentration in the medium necessary to obtain a blockage in mitosis / percentage of cells blocked in mitosis, compared with ALLN (in words): XL2 cell cultures
Description: The molecules synthesized were tested in vitro on the proteolytic activities described of the proteasome, then in vivo on Xenopus (XL2) cell cultures. Knowledge of the cell cycle of XL2 cells has made it possible to carry out synchronization experiments and also to evaluate the duration of each of the phases of the cycle. […]

[2] = molecular target: purified proteasome (chymotrypsin activity) (Homo sapiens, UniProt P28074); assay: Inhibition of the chymotrypsin catalytic activity of the purified proteasome; assay type: biochemical
Description: In vitro analyses of the inhibitory potentialities of the Hydrazinoazapeptoids synthesized vis-à-vis the enzyme activities of the proteasome.
The inhibitory potentialities of the hydrazinoazapeptoids have been quantified with respect to the chymotrypsin enzyme activities of the purified proteasome. The results are expressed as percentages of activity inhibition.
Measurement of the inhibitory properties of the synthesized compounds on the chymotrypsin catalytic activity of the purified proteasome.

XL2 cells [3] = assay: Fluorescence microscopy analysis of the stages of mitosis; assay type: cell-based, Xenopus; conditions: for % Anaphase + Telophase / % Metaphase / % Prophase: 50 cells blocked in mitosis
Description: The molecules synthesized were tested in vitro on the proteolytic activities described of the proteasome, then in vivo on Xenopus (XL2) cell cultures. Knowledge of the cell cycle of XL2 cells has made it possible to carry out synchronization experiments and also to evaluate the duration of each of the phases of the cycle.
Observation of the nuclear content makes it possible to determine the different stages of the mitosis. The following results were obtained using 50 cells blocked in mitosis. The first 7 inhibitors were studied using fluorescence microscopy.

[4] = system: cell cycle progression (mitosis); conditions: lower concentrations only slow down the mitosis; cited from earlier work
[5] = system: mouse leukaemia cell cultures; assay: Antiproliferative effect on mouse leukaemia cell cultures; assay type: cell-based
Description: We have analyzed the effect of the retro compounds on mouse leukaemia cell cultures and confirm that among these products, three compounds have an antiproliferative effect. This effect has been observed on two other cell types, rat hepatocytes and a human breast cancer line.

Molecule: PhCO—N^αhLeu-N-azaLeu-CO2Et [P10]
- % of cells blocked in G2/M (XL2 cells [1]; 143 μM, 7 h): 23.1%
- % inhibition of chymotrypsin activity of the purified proteasome ([2]; 2 mM compound): 42%

Molecule: CCCC[C@@H](C=O)NC(=O)[C@H](CC(C)C)NC(=O)[C@H](CC(C)C)NC(C)=O [ALLN, N-acetyl-leucinyl-leucinyl-norleucinal, reference compound] (Ac-Leu-Leu-[Nle]-aldehyde)
- concentration producing an extended stop in mitosis [4]: > 50 µg/mL
- % of cells blocked in G2/M (XL2 cells [1]; 100 μM, 7 h): 53%
- concentration in the medium necessary to obtain a blockage in mitosis (XL2 cells [1]): 100 µM
- % Anaphase + Telophase (XL2 cells [3]): 3%
- % Metaphase (XL2 cells [3]): 83%
- % Prophase (XL2 cells [3]): 15%
- % inhibition of chymotrypsin activity of the purified proteasome ([2]; 1 mM compound): 91%
- inhibition at 1000 µM ([2]; 1 mM compound): 90%

Molecule: CC(C)CN(CC(=O)N(CC(C)C)/N=C/c1cccc(B(O)O)c1)NC(=O)OC(C)(C)C [P15, Boc-N^αhLeu-N-azaLeu-CH-Ph-m-B(OH)2]
- % of cells blocked in G2/M (XL2 cells [1]; 133 μM, 7 h): 35.8%
- inhibition at 2000 µM ([2]; 2 mM compound): 38%

Molecule: F3COC—N^αhLeu-N-azaLeu-Z [PR5]
- effect on proliferation (in words) [5]: inhibit proliferation
- effect on viability of the cells / cell death (in words) [5]: cause cell death

Molecule: CC(C)CN(CC(=O)N(CC(C)C)/N=C/c1ccc(B(O)O)cc1)NC(=O)OC(C)(C)C [P15p, Boc-N^αhLeu-N-azaLeu-CH-Ph-p-B(OH)2]
- melting point: 186 °C

Molecule: BrH2COC—N^αhPhe-azaLeu-Z [PR3]
- effect on proliferation (in words) [5]: inhibit proliferation
- effect on viability of the cells / cell death (in words) [5]: cause cell death

Molecule: PhCO—N^αhLeu-N-azaLeu-CF3 [P11]
- % of cells blocked in G2/M (XL2 cells [1]; 144 μM, 7 h): 17.2%
- % inhibition of chymotrypsin activity of the purified proteasome ([2]; 2 mM compound): 40%

Molecule: BrH2COC—N^αhPhe-N-azaLeu-Z [PR2]
- effect on proliferation (in words) [5]: inhibit proliferation
- effect on viability of the cells / cell death (in words) [5]: cause cell death

Molecule: CC(C)C[C@@H](C=O)NC(=O)[C@H](CC(C)C)NC(=O)[C@H](CC(C)C)NC(=O)OCc1ccccc1 [MG132, benzyloxycarbonyl leucinyl-leucinyl-leucinal, reference compound] (Cbz-Leu-Leu-Leu-aldehyde)
- % of cells blocked in G2/M (XL2 cells [1]; 50 μM, 7 h): 60.6%

Molecule: o-B(OH)2-Ph-HC═N^αhPhe-N-azaLeu-Z [PR7]
- effect on proliferation (in words) [5]: proliferation inhibitors
- effect on viability of the cells / cell death (in words) [5]: do not affect the viability of the cells

Molecule: m-B(OH)2-Ph-HC═N^αhPhe-N-azaLeu-Z [PR8]
- effect on proliferation (in words) [5]: inhibit proliferation
- effect on viability of the cells / cell death (in words) [5]: cause cell death

Molecule: o-B(OH)2-Ph-HC═N^αhLeu-N-azaLeu-Z [PR6]
- effect on proliferation (in words) [5]: proliferation inhibitors
- effect on viability of the cells / cell death (in words) [5]: do not affect the viability of the cells

Molecule: Z-N^αhLeu-N-azaPhe-CH2Br [P21]
- effect on proliferation (in words) [5]: proliferation inhibitors
- effect on viability of the cells / cell death (in words) [5]: do not affect the viability of the cells

Molecule: CC(C)CN(CC(=O)N(Cc1ccccc1)NC(=O)CBr)NC(=O)OC(C)(C)C [P17, Boc-N^αhLeu-N-azaPhe-COCH2Br]
- % of cells blocked in G2/M (XL2 cells [1]; 21 μM, 0.5 h): 46.8%
- % of cells blocked in G2/M (XL2 cells [1]; 42 μM, 0.5 h): 47.3%
- % of cells blocked in G2/M (XL2 cells [1]; 85 μM, 0.5 h): 50.9%
- % of cells blocked in G2/M (XL2 cells [1]; 127 μM, 0.5 h): 42.8%
- % of cells blocked in G2/M (XL2 cells [1]; 127 μM, 1 h): 41.7%
- % of cells blocked in G2/M (XL2 cells [1]; 127 μM, 2 h): 38.3%
- percentage of cells blocked in mitosis, compared with ALLN (in words) (XL2 cells [1]): activity comparable to that of the ALLN
- melting point: 135 °C
- % inhibition of chymotrypsin activity of the purified proteasome ([2]; 2 mM compound): 80%
- inhibition at 2000 µM ([2]; 2 mM compound): 70%

Molecule: Z-N^αhLeu-N-azaLys-COCH2Br [P22]
- effect on proliferation (in words) [5]: inhibit proliferation
- effect on viability of the cells / cell death (in words) [5]: cause cell death

Further lines, with some results ahead:

- melting point: 105 °C
- inhibition at 2000 µM ([2]; 2 mM compound): 29%
Molecule: CC(C)CN(CC(=O)NN(CC(C)C)C(=O)C(F)(F)F)NC(=O)OC(C)(C)C [P1, Boc-N^αhLeu-azaLeu-CF3]
- % of cells blocked in G2/M (XL2 cells [1]; 145 μM, 7 h): 9.2%
- % Anaphase + Telophase (XL2 cells [3]): 51%
- % Metaphase (XL2 cells [3]): 35%
- % Prophase (XL2 cells [3]): 14%

- % inhibition of chymotrypsin activity of the purified proteasome ([2]; 2 mM compound): 71%
- inhibition at 2000 µM ([2]; 2 mM compound): 70%
Molecule: CC(C)CN(CC(=O)N(CC(C)C)NC(=O)CBr)NC(=O)OC(C)(C)C [P14, Boc-N^αhLeu-N-azaLeu-CH2Br]
- % of cells blocked in G2/M (XL2 cells [1]; 2 μM, 0.5 h): 48.2%
- % of cells blocked in G2/M (XL2 cells [1]; 4 μM, 0.5 h): 44.8%
- % of cells blocked in G2/M (XL2 cells [1]; 11 μM, 0.5 h): 47.4%
- % of cells blocked in G2/M (XL2 cells [1]; 22 μM, 0.5 h): 46.2%
- % of cells blocked in G2/M (XL2 cells [1]; 45 μM, 0.5 h): 48.3%
- % of cells blocked in G2/M (XL2 cells [1]; 91 μM, 0.5 h): 50.2%
- % of cells blocked in G2/M (XL2 cells [1]; 137 μM, 1 h): 50.2%
- concentration in the medium necessary to obtain a blockage in mitosis (XL2 cells [1]): 2 µM
- percentage of cells blocked in mitosis, compared with ALLN (in words) (XL2 cells [1]): activity comparable to that of the ALLN

- melting point: 110 °C
- inhibition at 2000 µM ([2]; 2 mM compound): 28%
Molecule: CC(C)CN(CC(=O)N(CC(C)C)NC(=O)C(F)(F)F)NC(=O)OC(C)(C)C [P8, Boc-N^αhLeu-N-azaLeu-CF3]
- % of cells blocked in G2/M (XL2 cells [1]; 146 μM, 7 h): 19.1%

- inhibition at 2000 µM ([2]; 2 mM compound): 30%
Molecule: CCOC(=O)C(=O)NN(CC(C)C)C(=O)CN(CC(C)C)NC(=O)OC(C)(C)C [P9, Boc-N^αhLeu-N-azaLeu-CO2Et]
- % of cells blocked in G2/M (XL2 cells [1]; 144 μM, 7 h): 14.1%

- melting point: 159 °C
Molecule: CC(C)CN(CC(=O)N(CC(C)C)/N=C/c1ccccc1B(O)O)NC(=O)OC(C)(C)C [P15o, Boc-N^αhLeu-N-azaLeu-CH-Ph-o-B(OH)2]

- melting point: 147 °C
- inhibition at 2000 µM ([2]; 2 mM compound): 32%
Molecule: CCOC(=O)C(=O)N(CC(C)C)NC(=O)CN(CC(C)C)NC(=O)OC(C)(C)C [P5, Boc-N^αhLeu-azaLeu-CO2Et]
- % of cells blocked in G2/M (XL2 cells [1]; 144 μM, 7 h): 5.2%
- % Anaphase + Telophase (XL2 cells [3]): 37%
- % Metaphase (XL2 cells [3]): 45%
- % Prophase (XL2 cells [3]): 18%

- inhibition at 2000 µM ([2]; 2 mM compound): 48%
Molecule: CC(C)CN(CC(=O)N(CC(C)C)NC(=O)CC#N)NC(=O)OC(C)(C)C [P12]
- % of cells blocked in G2/M (XL2 cells [1]; 156 μM, 7 h): 23.5%

- inhibition at 2000 µM ([2]; 2 mM compound): 38%
Molecule: CC(C)CN(CC(=O)N(CC(N)=O)CC(C)C)NC(=O)OC(C)(C)C [P6]
- % of cells blocked in G2/M (XL2 cells [1]; 167 μM, 7 h): 9.2%
- inhibitory selectivity during the different stages of mitosis (in words) (XL2 cells [3]): mostly blocks cells at the end of mitosis
- % Anaphase + Telophase (XL2 cells [3]): 58%
- % Metaphase (XL2 cells [3]): 24%
- % Prophase (XL2 cells [3]): 18%

- inhibition at 2000 µM ([2]; 2 mM compound): 34%
Molecule: CCSCC(=O)NN(CC(C)C)C(=O)CN(CC(C)C)NC(=O)OC(C)(C)C [P16]
- % of cells blocked in G2/M (XL2 cells [1]; 143 μM, 7 h): 24.2%

- melting point: 138 °C
- inhibition at 2000 µM ([2]; 2 mM compound): 23%
Molecule: CC(C)CN(CC(=O)N(CC(C)C)NC(N)=O)NC(=O)OC(C)(C)C [P7, Boc-N^αhLeu-N-azaLeu-CONH2]
- % of cells blocked in G2/M (XL2 cells [1]; 167 μM, 7 h): 12.3%
- inhibitory selectivity during the different stages of mitosis (in words) (XL2 cells [3]): much less selective
- % Anaphase + Telophase (XL2 cells [3]): 38%
- % Metaphase (XL2 cells [3]): 35%
- % Prophase (XL2 cells [3]): 27%

- inhibition at 2000 µM ([2]; 2 mM compound): 47%
Molecule: COC(=O)N(CC(C)C)NC(=O)CN(CC(C)C)NC(=O)OC(C)(C)C [P2]
- % of cells blocked in G2/M (XL2 cells [1]; 160 μM, 7 h): 6.7%
- % Anaphase + Telophase (XL2 cells [3]): 46%
- % Metaphase (XL2 cells [3]): 36%
- % Prophase (XL2 cells [3]): 18%

- inhibition at 2000 µM ([2]; 2 mM compound): 29%
Molecule: CCCCN(NC(=O)C(F)(F)F)C(=O)CN(CC(C)C)NC(=O)OC(C)(C)C [P4, Boc-N^αhLeu-N-azaNorleu-CF3]
- % of cells blocked in G2/M (XL2 cells [1]; 145 μM, 4 h): 16.5%
- % of cells blocked in G2/M (XL2 cells [1]; 145 μM, 8 h): 13.4%
- % Anaphase + Telophase (XL2 cells [3]): 42%
- % Metaphase (XL2 cells [3]): 42%
- % Prophase (XL2 cells [3]): 16%

- melting point: 105 °C
- inhibition at 2000 µM ([2]; 2 mM compound): 31%
Molecule: CCCCN(NC(=O)C(=O)OCC)C(=O)CN(CC(C)C)NC(=O)OC(C)(C)C [P3, Boc-N^αhLeu-N-azaNorleu-CO2Et]
- % of cells blocked in G2/M (XL2 cells [1]; 144 μM, 4 h): 14.9%
- % of cells blocked in G2/M (XL2 cells [1]; 144 μM, 6 h): 15.2%
- % of cells blocked in G2/M (XL2 cells [1]; 144 μM, 8 h): 13.8%
- % Anaphase + Telophase (XL2 cells [3]): 53%
- % Metaphase (XL2 cells [3]): 26%
- % Prophase (XL2 cells [3]): 21%

- melting point: 124 °C
- inhibition at 2000 µM ([2]; 2 mM compound): 35%
Molecule: CC(C)CN(CC(=O)N(CC(C)C)NC=O)NC(=O)OC(C)(C)C [P13, Boc-N^αhLeu-N-azaLeu-H]
- % of cells blocked in G2/M (XL2 cells [1]; 174 μM, 7 h): 20.8%
